Test results taken from patent US6150414A, “Compositions and methods for treating viral infections” (priority 1992, dated 2000).
Several values for one entry are separate records, joined by “and”; a condition that tells them apart may be missing. Identical values can stand only once. Like-named read-outs stand apart in the source and are kept apart here.

Assays:
[1] = test system: virus budding in virus-producing cells; assay: In vitro inhibition of virus budding: production of defective budded virions (Example 10); assay type: cell-based; conditions: read-out: EC50 for production of defective budded virions
Text: (§1) The results presented above in Table IX are presented as EC50 concentrations. These are the effective concentrations which inhibit 50% of the viruses in micromolar concentrations.

Friend Leukemia Virus [2] = assay: Inhibition of Friend Leukemia Virus-induced splenomegaly in mice, compounds intraperitoneally 24 hours after virus (Example 1(a)); assay type: in vivo, BALB/c mice; parameters: Actual Spleen Weight / Average Spleen Weight: unit not given here; conditions: for Spleen weight: single animal, listed as PS
How it was run: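 BALB/c mice inoculated i.v. with 10^6 FFU Friend virus (spleen homogenate); compounds given i.p. 24 h later at 100 μg once, or 50, 100, 200 μg or 2×100 μg (second dose 24–48 h after first), two mice per group. Spleens weighed at day 10; percent inhibition from average spleen weights relative to negative and positive controls.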

Friend Leukemia Virus [3] = assay: In vivo inhibition of Friend Leukemia Virus splenomegaly, intravenous 1-2 hours post infection (Example 10); parameters: species or system mice; conditions: Mus musculus, read-out: EC50 for FV-induced splenomegaly
Description: (§2) (3) In vivo inhibition of Friend Leukemia Virus Splenomegaly performed as described in Example 1 above except that the compounds were administered intravenously 1-2 hours post infection.
as §1

retroviruses = assay: Comparison over two in vitro and one in vivo biological assays (Example 10); conditions: for loss of antiviral activity relative to parent: Example 10, structural comparison
Description: In order to investigate the structural features of hypericin which are essential for antiretroviral activity, numerous analogs and precursors of hypericin were examined for activity in two in vitro and one in vivo biological assay.
(§3) (1) Direct inactivation of retroviruses in vitro, performed as in Example 3 above;
as §2

retroviruses (virions) = assay: Direct inactivation of retroviruses (virions) in vitro (Example 10); assay type: biochemical, Radiation Leukemia Virus; conditions: Table IX
Description: (§4) Supernatants (10 ml/tube) from B10.T(6R) cells (Meruelo et al. J. Exp. Med. 147: 470-487, 1978) chronically infected with Radiation Leukemia Virus (RadLV) were obtained by centrifugation of cells in culture at 4° C., 3500 rpm for 15 minutes. The top 2/3 of the supernatant were removed and aliquots were incubated for 30 minutes on ice with the indicated amounts of hypericin or protohypericin. […] Thereafter, supernatants were centrifuged at 100,000×g using a TI70 rotor (Beckman Instruments) for 1 hour at 4° C. The pellet was […] and analyzed for reverse transcriptase activity as follows.
(§5) The reverse transcriptase assay was performed in a volume of 100 microliters containing the following components:
as §3, §1

[4] = biological target: T1, Radiation Leukemia Virus reverse transcriptase (Radiation murine leukemia virus, UniProt P11227); assay: Radiation Leukemia Virus reverse transcriptase assay, supernatants from infected AQR cells (Examples 4 and 9); assay type: biochemical; conditions: Table VIII; for CPM: replicate
T1 construct: the reverse transcriptase of Radiation Leukemia Virus; endogenous in cells
Description: as §4, §5
The antiviral activity of HHA was tested using AQR (Bach and Meruelo, J. Exp. Med. 160:270-285, 1984) cells chronically infected with Radiation Leukemia Virus in the reverse transcriptase assay as described in Example 3 above.
The assays were conducted using the same procedure as in Example 3 above, using supernatants from infected AQR cells.

Friend Virus = assay: Friend Virus-induced splenomegaly, WIS compounds (Example 8); assay type: in vivo, mice; conditions: for Average % Inhibition / Average Spleen Weight / Actual Spleen Weight: Table VII; for Actual Spleen Weight: single animal
Description: The effects of compositions according to the present invention on the increase in spleen size (splenomegaly) of BALB/c mice (Jackson Labs, Bar Harbor, ME) was examined. In these experiments, the virus (10^6 focus forming units--FFU) was inoculated intravenously and 100 micrograms of the compounds indicated in Table II were administered to the mice intraperitoneally 24 hours later. Each compound was administered once to two mice. The animals were sacrificed ten days later and their spleens weighed.
As used in Table II (and subsequent Tables of this Example l(a) and (b), "average percent inhibition" is calculated as follows: [formula] wherein "ASWNC" designates "average spleen weight of negative control"; "ASWE" designates "average spleen weight of experimental (treated) subject"; and "ASWPC" designates "average spleen weight of positive control". Average spleen weight is the numerical average of spleen weights of each experimental group (in Table II each such group includes two members).
The AAB compounds whose synthesis is described above were assayed for antiviral activity. WIS-2, -3, -4, -5 and -6 were tested to determine their biological effects on Friend Virus-induced splenomegaly using the procedure and technique set forth in Example 1 above. The assay results (three mice per group were tested each at different concentrationss of the active composition except for the PBS-negative control wherein two animals per group were used) are reported in Table VII below.

Friend Leukemia Virus [5] = assay: Intravenous co-administration of pseudohypericin with Friend Leukemia Virus, splenomegaly; assay type: in vivo, mouse; conditions: for Spleen Weights: single animal, listed as PS
Description: A different experimental design was used involving the simultaneous intravenous co-administration of Ps with the FV complex. In this case, the viral preparation was mixed with Ps at various concentrations and the mixture was injected into the mouse tail vein in a final volume of 0.5 ml. The mice were sacrificed ten days later, their spleens weighed, and the level of inhibition of splenomegaly subsequently determined.
The effect of intravenous co-administration of pseudohypericin (diluted in PBS with 1% EtOH) with FV, on viral-induced splenomegaly.

[6] = FV 2 × 10^5 FFU, PS 80 mcg/mouse
[7] = FV 2 × 10^5 FFU, PS 80 mcg/mouse 2 inject
[8] = FV 10^6 FFU, PS 80 mcg/mouse 2 injections
[9] = FV + PS 5 mcg i.v. co-administration
[10] = FV + PS 20 mcg i.v. co-administration
[11] = FV + PS 50 mcg i.v. co-administration

O=C1c2ccccc2C(=C2c3ccccc3C(=O)c3ccccc32)c2ccccc21 [Compound 36, Bianthrone]
EC50 ([1]; in vitro, Table IX): > 100 µM | inhibition in vivo at 0.1 mg (Friend Leukemia Virus [2]; Mus musculus, ip, dose 2 × 100 (micrograms) i.p., Table III, read-out: Average Perdosage % Inhibition): 50% | inhibition in vivo at 0.05 mg (Friend Leukemia Virus [2]; Mus musculus, ip, dose 50 (micrograms) i.p., Table III, read-out: Average Perdosage % Inhibition): 52% | inhibition in vivo at 0.1 mg (Friend Leukemia Virus [2]; Mus musculus, ip, dose 100 (micrograms) i.p., Table III, read-out: Average Perdosage % Inhibition): 48% | inhibition in vivo at 0.2 mg (Friend Leukemia Virus [2]; Mus musculus, ip, dose 200 (micrograms) i.p., Table III, read-out: Average Perdosage % Inhibition): 57% | Average Spleen Weight (Friend Leukemia Virus [2]; dose 2 × 100 (micrograms) i.p., Table III): 1.1353 | Average Spleen Weight (Friend Leukemia Virus [2]; dose 50 (micrograms) i.p., Table III): 1.0839 | Average Spleen Weight (Friend Leukemia Virus [2]; dose 100 (micrograms) i.p., Table III): 1.1575 | Average Spleen Weight (Friend Leukemia Virus [2]; dose 200 (micrograms) i.p., Table III): 0.9970 | Pooled Average % Inhibition (Friend Leukemia Virus [2]; pooled over 50, 100, 200, 2 × 100 micrograms, Table III): 52% | EC50 (Friend Leukemia Virus [3]; i.v. 1-2 hours post infection, Table IX): 98 µM

O=C(O)c1cc(O)c2c(=O)c3c(O)cc(O)c4c5c(O)cc(O)c6c(=O)c7c(O)cc(C(=O)O)c8c1c2c(c34)c(c65)c78 [WIS-1, Hypericin-dicarboxylic acid]
EC50 [1]: > 100 µM | loss of antiviral activity relative to parent (retroviruses): diminished the antiviral activity

CC(=O)Oc1cc(C)c2c3c(C)cc(OC(C)=O)c4cc5c(OC(C)=O)cc(OC(C)=O)c6c7c(OC(C)=O)cc(OC(C)=O)c8cc1c2c(c87)c(c43)c56 [WIS-4, desoxohypericinhexaacetate]
EC50 (retroviruses (virions)): 6.9 µM | Average CPM ([4]; 0.05 micrograms): 164,212 CPM | CPM ([4]; 0.05 micrograms): 156,830 CPM and 171,594 CPM | Average CPM ([4]; 0.1 micrograms): 144,512 CPM | CPM ([4]; 0.1 micrograms): 100,504 CPM and 188,520 CPM | Average CPM ([4]; 0.5 micrograms): 208,119 CPM | CPM ([4]; 0.5 micrograms): 196,740 CPM and 219,498 CPM | Average CPM ([4]; 1 microgram): 180,180 CPM | CPM ([4]; 1 microgram): 179,312 CPM and 181,048 CPM | Average CPM ([4]; 2 micrograms): 237,365 CPM | CPM ([4]; 2 micrograms): 236,374 CPM and 238,356 CPM | Average CPM ([4]; 5 micrograms): 164,440 CPM | CPM ([4]; 5 micrograms): 164,780 CPM and 164,100 CPM | Average CPM ([4]; 10 micrograms): 184,852 CPM | CPM ([4]; 10 micrograms): 186,168 CPM and 183,536 CPM | inhibition at 50 ng ([4]; 0.5 h, 0.05 micrograms): 79.9% | inhibition at 0.0001 mg ([4]; 0.5 h, 0.1 micrograms): 82.3% | inhibition at 0.0005 mg ([4]; 0.5 h, 0.5 micrograms): 74.5% | inhibition at 0.001 mg ([4]; 0.5 h, 1 microgram): 77.9% | inhibition at 0.002 mg ([4]; 0.5 h, 2 micrograms): 70.9% | inhibition at 0.005 mg ([4]; 0.5 h, 5 micrograms): 79.9% | inhibition at 0.01 mg ([4]; 0.5 h, 10 micrograms, read-out: Average % Inhibition): 77.4% | EC50 (Friend Leukemia Virus [3]): > 242 µM | loss of antiviral activity relative to parent (retroviruses): loss of activity | Average % Inhibition (Friend Virus; 1 microgram): 14.9% | Average Spleen Weight (Friend Virus; 1 microgram): 0.8480 | Actual Spleen Weight (Friend Virus; 1 microgram): 0.7790 and 0.8852 and 0.8797 | Average % Inhibition (Friend Virus; 10 micrograms): 22.0% | Average Spleen Weight (Friend Virus; 10 micrograms): 0.7921 | Actual Spleen Weight (Friend Virus; 10 micrograms): 0.8118 and 0.8625 and 0.7019 | Average % Inhibition (Friend Virus; 50 micrograms): 28.8% | Average Spleen Weight (Friend Virus; 50 micrograms): 0.7384 | Actual Spleen Weight (Friend Virus; 50 micrograms): 0.7368 and 0.7744 and 0.7041 | Average % Inhibition (Friend Virus; 150 micrograms): 46.1% | Average Spleen Weight (Friend Virus; 150 micrograms): 0.6012 | Actual Spleen Weight (Friend Virus; 150 micrograms): 0.6214 and 0.6663 and 0.5159 | antiviral activity in splenomegaly assay (Friend Virus; Example 8): most active compounds of the group in the splenomegaly assay

Cc1cc(O)c2c(=O)c3c(O)cc(O)c4c5c(O)cc(O)c6c(=O)c7c(O)cc(CO)c8c1c2c(c34)c(c65)c78 [pseudohypericin, Pseudohypericin]
median inhibition in spleen enlargement (Friend Leukemia Virus [2]; 80 micrograms per mouse single injection, 2×10^5 FFU): 89.6% | inhibition of FV-induced splenomegaly / anti-retroviral activity (Friend Leukemia Virus [2]; Example 1(a)): marked decrease in the spleen enlargement capacity of the Friend Leukemia Virus | % Inhib (Friend Leukemia Virus [2]; [6]): 81.15% | Net change from control (Friend Leukemia Virus [2]; [6]): 0.1292 | Spleen weight, mean (x) (Friend Leukemia Virus [2]; [6]): 0.3138 ± 0.1197 gms | % Inhib (Friend Leukemia Virus [2]; [7]): 89.58% | Net change from control (Friend Leukemia Virus [2]; [7]): 0.0714 | Spleen weight, mean (x) (Friend Leukemia Virus [2]; [7]): 0.2560 ± 0.0723 gms | Spleen weight (Friend Leukemia Virus [2]; [7]): 0.3457 gms and 0.2784 gms and 0.2208 gms and 0.1791 gms | Spleen weight (Friend Leukemia Virus [2]; [6]): 0.4924 gms and 0.2469 gms and 0.2722 gms and 0.2438 gms | % Inhib (Friend Leukemia Virus [2]; FV 10^6 FFU, PS 80 mcg/mouse): 90.70% | Net change from control (Friend Leukemia Virus [2]; FV 10^6 FFU, PS 80 mcg/mouse): 0.0841 | Spleen weight, mean (x) (Friend Leukemia Virus [2]; FV 10^6 FFU, PS 80 mcg/mouse): 0.2687 ± 0.0621 gms | % Inhib (Friend Leukemia Virus [2]; [8]): 93.82% | Net change from control (Friend Leukemia Virus [2]; [8]): 0.0558 | Spleen weight, mean (x) (Friend Leukemia Virus [2]; [8]): 0.2404 ± 0.0482 gms | Spleen weight (Friend Leukemia Virus [2]; [8]): 0.2831 gms and 0.2761 gms and 0.2215 gms and 0.1810 gms | Spleen weight (Friend Leukemia Virus [2]; FV 10^6 FFU, PS 80 mcg/mouse): 0.2457 gms and 0.3400 gms and 0.2938 gms and 0.1956 gms | median inhibition of splenomegaly (Friend Leukemia Virus [2]; single injection of 80 micrograms per mouse): 93.8% | median inhibition of splenomegaly (Friend Leukemia Virus [2]; two daily consecutive injections of 80 micrograms per mouse, 2×10^5 FFU): 81.7% | median inhibition of splenomegaly (Friend Leukemia Virus [2]; two daily consecutive injections of 80 micrograms per mouse, 10^6 FFU): 90.7% | EC50 (Friend Leukemia Virus [3]): 3.8 µM | activity across assays (retroviruses; Example 10): high degree of activity in a more than one assay | Spleen Weights, mean (x) (Friend Leukemia Virus [5]; [9]): 0.3862 grams | Spleen Weights (Friend Leukemia Virus [5]; [9]): 0.3425 grams and 0.3766 grams and 0.4005 grams and 0.4255 grams | % Inhibition (Friend Leukemia Virus [5]; FV + PS 5 mcg per mouse i.v. co-administration): 75.44% | Spleen Weights, mean (x) (Friend Leukemia Virus [5]; [10]): 0.1614 grams | Spleen Weights (Friend Leukemia Virus [5]; [10]): 0.1655 grams and 0.1426 grams and 0.1433 grams and 0.1966 grams | % Inhibition (Friend Leukemia Virus [5]; FV + PS 20 mcg per mouse i.v. co-administration): 100% | Spleen Weights, mean (x) (Friend Leukemia Virus [5]; [11]): 0.1572 grams | Spleen Weights (Friend Leukemia Virus [5]; [11]): 0.1830 grams and 0.1674 grams and 0.1422 grams and 0.1365 grams | % Inhibition (Friend Leukemia Virus [5]; FV + PS 50 mcg per mouse i.v. co-administration): 100%
